From US20260176270A1 (Exelixis, Inc., priority 2022, published 2026)
Read-outs that look alike come from different tables or passages of the source.

Columns and labels:
[1] = test system: phosphorylation of CDK1 at Thr14 in HCC1806 cells; test: Cell lysate AlphaLISA assay measuring inhibition of phosphorylation of CDK1 Thr14; assay type: cell-based; conditions: read-out: Cellular IC50
Experimental: (§1) Biochemical IC50 values were determined via ADP-Glo™ assay. Cellular IC50 values were determined via AlphaLISA assay.
Cell lysate AlphaLISA® assay measuring inhibition of phosphorylation of CDK1 Thr14. Inhibition of phosphorylation of CDK1 at Thr14 was determined using AlphaLISA® SureFire® Ultra™ Kit from Perkin Elmer (ALSU-PCDK1-A10K). HCC1806 cells were seeded at 2K cells per well (50 μl/well) in 384-well plates (Corning 3570) and stored overnight at 37° C. and 5% CO2. The following day, the compounds dissolved in DMSO were introduced to the cells and incubated for 4 hours at 37° C. and 5% CO2. The cells were then washed with PBS using Blue®Washer and 10 μl of lysis buffer containing protease inhibitor was added. The plate was placed on an orbital shaker (at 4° C.) for 30 minutes and stored overnight at −80° C. for complete lysing. The next day, the plates were thawed at room temperature for at least 30 min. Reagents were prepared in a dimmed light setting (<100 lumens). The assay was run by first adding 5 μl of the acceptor mix (reaction buffer 1: reaction buffer 2: activation buffer: acceptor beads 47:47:4:2), covering the plate with foil, shaking for 2 minutes and incubating at RT for 60 minutes. The donor mix (dilution buffer: donor beads 47:3) was then added at 5 μl per well, placed on the shaker for 2 minutes and incubated at RT for 60 minutes before reading the plates on a PHERAstar® plate reader. The results were normalized to DMSO (0% Inhibition) and 3 μM of reference compound.

PKMYT1 = target: T1, PKMYT1 (Homo sapiens, UniProt Q99640); test: ADP-Glo PKMYT1 ATP-depletion assay; conditions: 50 nM PKMYT1, 13.3 nM CDK1, read-out: Biochemical IC50
T1 construct: PKMYT1 (93 kD, full length, N-terminal GST tag from Signal Chem); GST (N); purchased Signal Chem
T1 sequence (Q99640 1-499): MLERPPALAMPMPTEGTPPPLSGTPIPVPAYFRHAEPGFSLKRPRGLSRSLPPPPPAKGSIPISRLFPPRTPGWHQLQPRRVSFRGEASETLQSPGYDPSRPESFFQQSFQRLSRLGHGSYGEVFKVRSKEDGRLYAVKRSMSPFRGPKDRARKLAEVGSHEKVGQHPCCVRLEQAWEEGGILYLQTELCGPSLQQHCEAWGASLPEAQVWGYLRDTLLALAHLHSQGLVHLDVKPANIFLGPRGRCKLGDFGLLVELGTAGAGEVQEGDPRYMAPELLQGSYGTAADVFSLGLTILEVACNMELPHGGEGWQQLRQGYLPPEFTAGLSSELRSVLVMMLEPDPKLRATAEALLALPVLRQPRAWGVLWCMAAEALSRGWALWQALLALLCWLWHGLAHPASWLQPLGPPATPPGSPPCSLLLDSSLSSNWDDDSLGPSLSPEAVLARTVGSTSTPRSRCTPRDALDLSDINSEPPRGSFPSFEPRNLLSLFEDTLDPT
Experimental: as §1
ADP-Glo™ PKMYT1 ATP-depletion assay. The activity of PKMYT1 is measured using a luciferase-luciferin based ATP detection reaction to quantify ATP depletion resulting from kinase-catalyzed phosphoryl transfer to CDK1 or autophosphorylation of PKMYT1. The ADP generated as a byproduct of the reaction is converted to ATP and used to drive a luciferase reaction. Test compounds were dissolved in DMSO and dispensed into Corning 3824 384-well plates prior to the experiment such that the final DMSO concentration was <1%. To the compounds was added 3 μL of PKMYT1 (93 kD, full length, N-terminal GST tag from Signal Chem). The reaction was started by the addition of 2 μL of CDK1 (58 kDa, full length, N-terminal GST tag from Signal Chem) and ATP in assay buffer (50 mM Hepes, 40 mM NaCl, 10 mM MgCl2, 1 mM DTT, 0.1 mg/mL BSA, 2.5 mM MnCl2). Final assay concentrations were 50 nM PKMYT1, 13.3 nM CDK1, and 88 µM ATP. Plates were centrifuged for 1 minute at 1000 RPM and incubated at RT for 120 minutes. After the incubation period, ADP-Glo™ reagent was added and the plates were incubated for another 40 minutes before finally adding the kinase detection reagent. 30 minutes after the addition, plates were placed on a PHERAstar® plate reader and read using the Luminescence Protocol, integration time at 0.5 seconds.

Cc1ccc2[nH]nc(F)c2c1-c1c(N)c(C(N)=O)cc2nccnc12 [Compound 176]
IC50 ([1]; 4 hours): ≥ 5 µM
IC50 (PKMYT1): 0.5 to 1 µM

NC(=O)c1cc2nccnc2c(-c2cc(O)cnc2Cl)c1N [Compound 122, 7-Amino-8-(2-chloro-5-hydroxy-3-pyridyl)quinoxaline-6-carboxamide]
IC50 ([1]; Homo sapiens, HCC1806, 4 h): ≥ 5 µM
IC50 (PKMYT1): 1 to 5 µM

NC(=O)c1nc2cccnc2c(-c2cnc(N)cc2C(F)(F)F)c1N [Compound 183]
IC50 ([1]; Homo sapiens, HCC1806, 4 h): ≥ 5 µM
IC50 (PKMYT1): ≥ 5 µM

Cc1ccc(O)c(C)c1-c1c(N)c(C(N)=O)nc2cccnc12 (single isomer, unassigned) [Compound 10, (M)-3-amino-4-(3-hydroxy-2,6-dimethylphenyl)-1,5-naphthyridine-2-carboxamide]
IC50 ([1]; 4 hours): 1 to 5 µM
IC50 (PKMYT1): 0.5 to 1 µM

Cc1ccc2[nH]ncc2c1-c1cc(C(N)=O)cc2nccnc12 [Compound 70, 8-(5-Methyl-1H-indazol-4-yl)quinoxaline-6-carboxamide]
IC50 ([1]; Homo sapiens, HCC1806, 4 h): ≥ 5 µM
IC50 (PKMYT1): ≥ 5 µM

Cc1c(O)cc(Cl)cc1-c1c(N)c(C(N)=O)nc2cccnc12 [Compound 248]
IC50 ([1]; 4 hours): 1 to 5 µM
IC50 (PKMYT1): 0.05 to 0.5 µM

Cc1c(O)cccc1-c1c(N)c(C(N)=O)cc2nccnc12 (single isomer, unassigned) [Compound 89, (M)-7-amino-8-(3-hydroxy-2-methylphenyl)quinoxaline-6-carboxamide]
IC50 ([1]; 4 hours): ≥ 5 µM
IC50 (PKMYT1): 1 to 5 µM

Cc1ccc(O)c(C)c1-c1c(N)c(C(N)=O)nc2ccc(Cl)cc12 [Compound 36, 3-Amino-6-chloro-4-(3-hydroxy-2,6-dimethyl-phenyl) quinoline-2-carboxamide]
IC50 ([1]; Homo sapiens, HCC1806, 4 h): 1 to 5 µM
IC50 (PKMYT1): 0.05 to 0.5 µM

Cc1c(O)cccc1-c1c(N)c(C(N)=O)cc2nc(C)c(=O)n(C)c12 [Compound 138]
IC50 ([1]; 4 hours): 1 to 5 µM
IC50 (PKMYT1): 0.05 to 0.5 µM

Cc1c(O)cccc1-c1c(N)c(C(N)=O)cc2c1ncc(=O)n2C [Compound 219]
IC50 ([1]; Homo sapiens, HCC1806, 4 h): ≥ 5 µM
IC50 (PKMYT1): 1 to 5 µM

NC(=O)c1nc2cccnc2c(-c2ccnc3[nH]ncc23)c1N [Compound 191]
IC50 ([1]; Homo sapiens, HCC1806, 4 h): ≥ 5 µM
IC50 (PKMYT1): 1 to 5 µM

Cc1c(O)cccc1-c1c(N)c(C(N)=O)nc2c(=O)[nH]cnc12 [Compound 282]
IC50 ([1]; Homo sapiens, HCC1806, 4 h): ≥ 5 µM
IC50 (PKMYT1): 0.05 to 0.5 µM

Cc1c(F)cncc1-c1c(N)c(C(N)=O)nc2cccnc12 [Compound 208]
IC50 ([1]; Homo sapiens, HCC1806, 4 h): 0.5 to 1 µM
IC50 (PKMYT1): 0.05 to 0.5 µM

COc1ccc2nc(C(N)=O)c(N)c(-c3cncc(C(F)F)c3C)c2n1 [Compound 314]
IC50 ([1]; Homo sapiens, HCC1806, 4 h): ≥ 5 µM
IC50 (PKMYT1): 0.5 to 1 µM

Cc1cnncc1-c1c(N)c(C(N)=O)nc2cccnc12 [Compound 257]
IC50 ([1]; Homo sapiens, HCC1806, 4 h): ≥ 5 µM
IC50 (PKMYT1): ≥ 5 µM

Cc1c(O)cccc1-c1c(N)c(C(N)=O)nc2cc(C(F)(F)F)cnc12 [Compound 161]
IC50 ([1]; 4 hours): 0.05 to 0.5 µM
IC50 (PKMYT1): < 0.05 µM

Cc1[nH]nc2cccc(-c3cc(C(N)=O)nc4ccccc34)c12 [Compound 19, 4-(3-Methyl-2H-indazol-4-yl)quinoline-2-carboxamide]
IC50 ([1]; Homo sapiens, HCC1806, 4 h): ≥ 5 µM
IC50 (PKMYT1): ≥ 5 µM

NC(=O)c1cc2nccnc2c(-c2c(Cl)ccc3[nH]ncc23)c1N (atropisomer, axis not shown) [Compound 246]
IC50 ([1]; 4 hours): 0.5 to 1 µM
IC50 (PKMYT1): 0.05 to 0.5 µM

Cc1c(O)cccc1-c1c(N)c(C(N)=O)nc2ncccc12 [Compound 237]
IC50 ([1]; Homo sapiens, HCC1806, 4 h): 1 to 5 µM
IC50 (PKMYT1): 0.05 to 0.5 µM

Cc1ccc(-c2c(N)c(C(N)=O)nc3cccnc23)c(C)c1O (atropisomer, axis not shown) [Compound 288]
IC50 ([1]; 4 hours): 0.05 to 0.5 µM
IC50 (PKMYT1): < 0.05 µM

Cc1ccc(O)c(C)c1-c1c(N)c(C(N)=O)nc2c(C(F)(F)F)cccc12 [Compound 28, 3-Amino-4-(3-hydroxy-2,6-dimethylphenyl)-8-(trifluoromethyl)quinoline-2-carboxamide]
IC50 ([1]; Homo sapiens, HCC1806, 4 h): 0.05 to 0.5 µM
IC50 (PKMYT1): 0.05 to 0.5 µM

Cc1ccc(O)c(C)c1-c1c(N)c(C#N)cc2nccnc12 (atropisomer, axis not shown) [Compound 301]
IC50 ([1]; 4 hours): ≥ 5 µM
IC50 (PKMYT1): ≥ 5 µM

Cc1cnc2c(-c3c(C)ccc(O)c3C)c(N)c(C(N)=O)cc2n1 (atropisomer, axis not shown) [Compound 222]
IC50 ([1]; 4 hours): < 0.05 µM
IC50 (PKMYT1): < 0.05 µM

Cc1c(O)cccc1-c1c(N)c(C(N)=O)nc2cc(C(F)(F)F)cnc12 (atropisomer, axis not shown) [Compound 167]
IC50 ([1]; 4 hours): ≥ 5 µM
IC50 (PKMYT1): 1 to 5 µM

NC(=O)c1cc2nccnc2c(-c2cccc(O)c2Cl)c1N (single isomer, unassigned) [Compound 105, (P)-7-Amino-8-(2-chloro-3-hydroxyphenyl)quinoxaline-6-carboxamide]
IC50 ([1]; 4 hours): 0.05 to 0.5 µM
IC50 (PKMYT1): < 0.05 µM

Cc1c(C#N)cncc1-c1c(N)c(C(N)=O)nc2cccnc12 [Compound 317]
IC50 ([1]; Homo sapiens, HCC1806, 4 h): ≥ 5 µM
IC50 (PKMYT1): 1 to 5 µM

Cn1c(-c2c(N)c(C(N)=O)nc3cccnc23)cccc1=O [Compound 158]
IC50 ([1]; Homo sapiens, HCC1806, 4 h): ≥ 5 µM
IC50 (PKMYT1): 1 to 5 µM

Cc1cc2c[nH]nc2cc1-c1c(N)c(C(N)=O)nc2cccnc12 [Compound 205]
IC50 ([1]; Homo sapiens, HCC1806, 4 h): ≥ 5 µM
IC50 (PKMYT1): ≥ 5 µM

Cc1c(O)cccc1-c1c(N)c(C(N)=O)cc2nccnc12 (single isomer, unassigned) [Compound 87, (P)-7-Amino-8-(3-hydroxy-2-methylphenyl)quinoxaline-6-carboxamide]
IC50 ([1]; 4 hours): 0.05 to 0.5 µM
IC50 (PKMYT1): < 0.05 µM

Cc1ccc(O)c(C)c1-c1c(N)c(C(N)=O)nc2c(C(F)(F)F)cccc12 (single isomer, unassigned) [Compound 30, (M)-3-Amino-4-(3-hydroxy-2,6-dimethylphenyl)-8-(trifluoromethyl) quinoline-2-carboxamide]
IC50 ([1]; 4 hours): < 0.05 µM
IC50 (PKMYT1): 0.05 to 0.5 µM

COc1ccc2nc(C(N)=O)c(N)c(-c3cccc(O)c3C)c2n1 (atropisomer, axis not shown) [Compound 174]
IC50 ([1]; 4 hours): 0.05 to 0.5 µM
IC50 (PKMYT1): < 0.05 µM

Cn1ncc2c(-c3c(N)c(C(N)=O)nc4cccnc34)cncc21 [Compound 332]
IC50 ([1]; Homo sapiens, HCC1806, 4 h): ≥ 5 µM
IC50 (PKMYT1): 1 to 5 µM

Cc1ccc(O)c(C)c1-c1c(N)c(C(N)=O)cc2cc(Cl)cnc12 [Compound 177]
IC50 ([1]; 4 hours): 0.05 to 0.5 µM
IC50 (PKMYT1): < 0.05 µM

Cc1ccc(O)c(C)c1-c1c(N)c(C(N)=O)nc2ccc(C(F)(F)F)cc12 (single isomer, unassigned) [Compound 40, (M)-3-Amino-4-(3-hydroxy-2,6-dimethylphenyl)-6-(trifluoromethyl)quinoline-2-carboxamide]
IC50 ([1]; 4 hours): 1 to 5 µM
IC50 (PKMYT1): 0.5 to 1 µM

Cc1cnc2c(-c3cccc(O)c3C)c(N)c(C(N)=O)cc2c1 [Compound 196]
IC50 ([1]; Homo sapiens, HCC1806, 4 h): 1 to 5 µM
IC50 (PKMYT1): 0.05 to 0.5 µM

Cc1c(O)cccc1-c1c(N)c(C(N)=O)cc2nccnc12 [Compound 73, 7-Amino-8-(3-hydroxy-2-methyl-phenyl)quinoxaline-6-carboxamide]
IC50 ([1]; Homo sapiens, HCC1806, 4 h): 0.05 to 0.5 µM
IC50 (PKMYT1): < 0.05 µM

Cc1c(O)cccc1-c1cc(C(N)=O)nc2ccccc12 [Compound 13]
IC50 ([1]; Homo sapiens, HCC1806, 4 h): ≥ 5 µM
IC50 (PKMYT1): 1 to 5 µM

NC(=O)c1nc2cccnc2c(-c2c(F)ccc3[nH]ncc23)c1N [Compound 220]
IC50 ([1]; 4 hours): 1 to 5 µM
IC50 (PKMYT1): 0.05 to 0.5 µM

Cc1c(O)cccc1-c1c(N)c(C(N)=O)cc2ncccc12 [Compound 67, 6-Amino-5-(3-hydroxy-2-methylphenyl)quinoline-7-carboxamide]
IC50 ([1]; 4 hours): 1 to 5 µM
IC50 (PKMYT1): 0.05 to 0.5 µM
